Experiments:
human TLR7 = biological target: T1, human TLR7 (Homo sapiens, UniProt Q9NYK1); assay: HEK293 SEAP reporter assay, other TLRs (Biological Example 3); type: cell-based; conditions: 16 hrs, * = Estimated
T1 construct: host or cells: HEK293
T1 sequence (Q9NYK1 27-1049): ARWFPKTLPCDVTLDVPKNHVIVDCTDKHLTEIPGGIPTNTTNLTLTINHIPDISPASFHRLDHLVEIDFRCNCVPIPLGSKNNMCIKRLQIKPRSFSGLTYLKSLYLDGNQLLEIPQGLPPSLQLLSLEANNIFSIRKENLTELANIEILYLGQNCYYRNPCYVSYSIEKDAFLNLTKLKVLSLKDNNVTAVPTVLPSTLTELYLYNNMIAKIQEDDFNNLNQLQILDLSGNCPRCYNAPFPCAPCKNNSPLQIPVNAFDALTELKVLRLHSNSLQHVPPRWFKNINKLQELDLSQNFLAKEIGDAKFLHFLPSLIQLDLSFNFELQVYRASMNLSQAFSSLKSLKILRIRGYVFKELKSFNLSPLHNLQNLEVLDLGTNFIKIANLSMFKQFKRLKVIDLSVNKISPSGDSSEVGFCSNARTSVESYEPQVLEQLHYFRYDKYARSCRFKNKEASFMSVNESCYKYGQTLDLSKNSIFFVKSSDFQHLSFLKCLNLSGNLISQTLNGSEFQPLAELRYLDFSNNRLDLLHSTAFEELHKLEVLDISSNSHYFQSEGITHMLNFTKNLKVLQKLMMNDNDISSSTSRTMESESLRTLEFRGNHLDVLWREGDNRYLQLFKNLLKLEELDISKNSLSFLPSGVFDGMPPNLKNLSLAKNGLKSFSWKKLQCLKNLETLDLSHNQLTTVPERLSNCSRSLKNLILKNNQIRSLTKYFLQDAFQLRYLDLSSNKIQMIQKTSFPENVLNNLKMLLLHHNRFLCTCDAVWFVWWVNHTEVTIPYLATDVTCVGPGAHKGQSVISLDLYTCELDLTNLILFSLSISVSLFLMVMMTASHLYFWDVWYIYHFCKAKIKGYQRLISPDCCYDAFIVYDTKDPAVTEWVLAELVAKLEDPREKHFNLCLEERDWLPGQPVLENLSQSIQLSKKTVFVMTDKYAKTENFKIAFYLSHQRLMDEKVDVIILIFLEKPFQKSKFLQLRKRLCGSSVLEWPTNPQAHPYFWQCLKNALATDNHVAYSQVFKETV
Excerpt: (§1) In this example, the activity of the Compound 1 to stimulate different human and mouse TLR pathways was investigated on HEK293 cells transfected with inducible SEAP (secreted embryonic alkaline phosphatase) reporter genes and also expressing different human TLRs (TLR2, TLR3, TLR4, TLR5, TLR7, TLR8, TLRS) or mouse TLRs (TLR2, TLR3, TLR4, TLR5, TLR7, TLR8, TLR13).
(§2) HEK293 reporter cell lines were purchased from Invivogen and cell lines were maintained in manufacture recommended culture medium with required supplemental antibiotics. On the day of assay, the cells were harvested with Accutase and counted by the Vi-CELL Cell Viability Analyzers. Cells were re-suspended in HEK blue detection medium and a total of 10000 cells were seeded in each well of a 384-well flat bottom plate. […] Assay plates were cultured at 37° C. in a CO2 incubator for 16 hrs. HEK-Blue™ Detection medium changes to a purple/blue color in the presence of secreted SEAP, which can be detected by spectrophotometry at 620-655 nm. Data was fitted with non-linear regression analysis, using a log(inhibitor) vs. response-variable slope, 3-parameter fit with GraphPad Prism.

human TLR8 = biological target: T2, human TLR8 (Homo sapiens, UniProt Q9NR97); assay: as above; type: cell-based; conditions: 16 hrs, * = Estimated
T2 construct: host or cells: HEK293
T2 sequence (Q9NR97 27-1041): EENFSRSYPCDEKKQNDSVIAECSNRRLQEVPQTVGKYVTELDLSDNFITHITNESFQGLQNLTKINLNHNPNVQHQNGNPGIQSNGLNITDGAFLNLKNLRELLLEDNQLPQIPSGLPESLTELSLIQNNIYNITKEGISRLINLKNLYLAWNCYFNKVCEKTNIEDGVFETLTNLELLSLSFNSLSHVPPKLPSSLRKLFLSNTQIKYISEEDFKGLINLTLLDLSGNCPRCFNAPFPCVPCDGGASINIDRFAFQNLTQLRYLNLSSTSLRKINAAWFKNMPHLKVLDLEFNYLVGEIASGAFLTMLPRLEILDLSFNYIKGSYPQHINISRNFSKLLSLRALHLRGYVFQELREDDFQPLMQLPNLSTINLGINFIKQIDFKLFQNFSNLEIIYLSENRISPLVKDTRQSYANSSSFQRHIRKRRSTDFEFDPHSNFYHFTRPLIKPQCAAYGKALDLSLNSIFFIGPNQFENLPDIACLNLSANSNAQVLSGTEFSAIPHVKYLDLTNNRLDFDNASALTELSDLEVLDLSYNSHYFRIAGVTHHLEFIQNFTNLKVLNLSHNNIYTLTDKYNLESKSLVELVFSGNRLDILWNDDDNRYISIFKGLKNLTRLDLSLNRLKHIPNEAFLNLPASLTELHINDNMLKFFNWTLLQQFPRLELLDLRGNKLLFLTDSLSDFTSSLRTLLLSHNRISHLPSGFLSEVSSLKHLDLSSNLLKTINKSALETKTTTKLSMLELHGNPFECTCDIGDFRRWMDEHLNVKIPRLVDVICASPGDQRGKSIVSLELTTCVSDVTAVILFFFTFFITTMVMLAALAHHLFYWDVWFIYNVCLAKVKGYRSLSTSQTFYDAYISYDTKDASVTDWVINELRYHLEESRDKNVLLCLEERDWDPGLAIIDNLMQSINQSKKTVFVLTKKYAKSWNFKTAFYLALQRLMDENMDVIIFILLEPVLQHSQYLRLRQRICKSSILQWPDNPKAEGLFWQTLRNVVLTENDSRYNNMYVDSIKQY
Excerpt: as §1, §2

## CCCCn1nc2c(N)nc3ccccc3c2c1Cc1ccc(CN)cc1 [Compound 1, 1-(4-(aminomethyl)benzyl)-2-butyl-2H-pyrazolo[3,4-c]quinolin-4-amine]
Human TLR7
  EC50: 61.4 nM
Human TLR8
  EC50: ~401 nM

Source: US20220259202A1, “1-(4-(AMINOMETHYL)BENZYL)-2-BUTYL-2H-PYRAZOLO[3,4-C]QUINOLIN-4-AMINE DERIVATIVES AND RELATED COMPOUNDS AS TOLL-LIKE RECEPTOR (TLR) 7/8 AGONISTS, AS WELL AS ANTIBODY DRUG CONJUGATES THEREOF FOR USE IN CANCER THERAPY AND DIAGNOSIS” (SUTRO BIOPHARMA, INC., priority 2019, published 2022)
